Source: PubChem BioAssay (NCI)
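These data come from cells grown in 96-well plates and exposed to compound for 48 hours at five concentrations. TGI is the concentration that stops growth completely.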

Experiments:
Assay in all cases: growth of human tumour cells (NCI), 48 h
[1] = tested on: OVCAR-3 ovarian
[2] = tested on: HL-60(TB) leukemia
[3] = tested on: IGROV1 ovarian
[4] = tested on: SK-MEL-28 melanoma
[5] = tested on: SR leukemia
[6] = tested on: HCT-116 colon
[7] = tested on: SF-295 CNS
[8] = tested on: MDA-MB-435
[9] = tested on: ACHN renal
[10] = tested on: HS 578T breast
[11] = tested on: HOP-62 NSCLC
[12] = tested on: UO-31 renal
[13] = tested on: A498 renal
[14] = tested on: DU-145 prostate
[15] = tested on: KM12 colon
[16] = tested on: OVCAR-8 ovarian
[17] = tested on: SNB-75 CNS

Measured: TGI

CC(=O)OCc1nc(C#N)c(N)o1
not listed: [16] | [17]
> 100 µM: all other assays above

O=C1CC2[C@@H](N3CCCC3)CCC(N1Cc1ccccc1)C2(O)O (some centres undefined)
not listed: [17]
> 100 µM: all other assays above

O=C(OCc1ccccc1)N1CCNCCNCC1
not listed: [17]
> 100 µM: all other assays above

O=c1c2cccnc2[nH]c2ccc3scnc3c12
9.79 µM: [6]
not listed: [12]
> 10 µM: all other assays above

CCOC(=O)/C(C#N)=C(/NS(=O)(=O)c1cc(C)c(Cl)cc1[S-])[n+]1ccc(N(C)C)cc1
not listed: [17]
> 100 µM: all other assays above

C=C(Cl)C(C)(Cl)CCC(Cl)C(C)(C)Cl (centres undefined)
61.3 µM: [5]
not listed: [16]
> 100 µM: all other assays above

O=C(Sc1c(-c2ccccc2)c(=O)n(-c2ccccc2)c(=S)n1-c1ccccc1)c1ccc(Cl)cc1
not listed: [12]
> 100 µM: all other assays above

COc1ccc(-c2oc3c(CC(=O)O)cccc3c(=O)c2OC)cc1
53.4 µM: [12]
not listed: [4] | [15] | [17]
> 100 µM: all other assays above

O=C(O)C(Cc1ccc(O)cn1)NC(=O)C(F)(F)F (centres undefined)
not listed: [17]
> 100 µM: all other assays above

CCCCCCCC1c2cc3[nH]c(cc4nc(cc5[nH]c(cc(n2)[C@@]1(C)CC(=O)N(C)C)c(C)c5CCC(=O)O)C(CCC(=O)O)=C4C)cc3C (some centres undefined)
32.5 µM: [6] | [12]
40.6 µM: [10]
92.5 µM: [8]
37.5 µM: [7]
87.2 µM: [13]
45.8 µM: [2]
57 µM: [14]
35.4 µM: [11]
58.5 µM: [15]
37.1 µM: [1]
39.6 µM: [3]
44.6 µM: [5]
35.8 µM: [4] | [9]
40 µM: [17]

Cc1cc(Cl)nc(NC(=O)CSc2ccc(Cl)cc2)n1
not listed: [17]
> 100 µM: all other assays above

CC(=O)N1NC(c2ccccc2)=CC(=O)/C1=C/C(=O)c1ccccc1
76.3 µM: [2]
57.8 µM: [5]
43.1 µM: [8]
not listed: [17]
> 100 µM: all other assays above
